ChEMBL document CHEMBL5120911, “Suncheonosides E-M and Benzothioate Derivatives from the Marine-Derived Streptomyces sp. ZSN77” (J Nat Prod, 2022)
Where a name gives a salt, the structure may show the parent alone.

How the values were obtained:
Assay type in all cases: functional, cell-based
HCT-116 = assay: Cytotoxicity against human HCT-116 cells assessed as reduction in cell viability incubated for 72 hrs by SRB assay; conditions: HCT-116, 72 h
MDA-MB-231 = assay: Cytotoxicity against human MDA-MB-231 cells assessed as reduction in cell viability incubated for 72 hrs by SRB assay; conditions: MDA-MB-231, 72 h
PC-3 = assay: Cytotoxicity against human PC-3 cells assessed as reduction in cell viability incubated for 72 hrs by SRB assay; conditions: PC-3, 72 h
BV-2 = assay: Antiinflammatory activity in mouse BV-2 cells assessed as inhibition of LPS-induced NO production pretreated for 3 hrs followed by LPS stimulation measured after 24 hrs by microplate reader assay; conditions: dose 2.5-10 µM, time 27.0 hrs, DDE = dose-dependent effect

| Structure (SMILES) | IC50 (HCT-116) | IC50 (MDA-MB-231) | IC50 (PC-3) | Activity (BV-2) |
| --- | --- | --- | --- | --- |
| CSC(=O)c1c(O[C@@H]2O[C@H](COC(C)=O)[C@@H](O)[C@H](O)[C@H]2O)c(C)c(O)c(C)c1C(C)C | > 40 µM | > 40 µM | – | – |
| Cc1c(O)c(C)c(C(C)C)c(O[C@@H]2O[C@H](CO)[C@@H](O)[C@H](O)[C@H]2O)c1O | > 40 µM | > 40 µM | 4.1 µM | Dde |
| Cc1c(O)cc(C(C)C)c(C)c1O | > 40 µM | > 40 µM | > 40 µM | – |
| CCc1c(C)c(O)c(C)c(O[C@@H]2O[C@H](COC(C)=O)[C@@H](O)[C@H](O)[C@H]2O)c1C(=O)SC | > 40 µM | 16 µM | – | – |
| CSC(=O)c1c(O[C@@H]2O[C@H](CO)[C@@H](O)[C@H](O)[C@H]2O)c(C)c(OC(=O)c2c(O)c(C)c(O)c(C)c2C(C)C)c(C)c1C(C)C | > 40 µM | 11 µM | – | – |
| CCc1c(C)c(O)c(C)c(O)c1C(=O)SC | > 40 µM | > 40 µM | > 40 µM | – |
| CSC(=O)c1c(C)c(C)c(O)c(C)c1O[C@@H]1O[C@H](CO)[C@@H](O)[C@H](O)[C@H]1O | > 40 µM | > 40 µM | > 40 µM | – |
| CSC(=O)c1c(O)c(C)c(O)c(C)c1C(C)C | 3.9 µM | > 40 µM | – | Dde |
| COc1cccc2c1C(=O)c1c(O)c3c(c(O)c1C2=O)C[C@@](O)(C(=O)CO)C[C@@H]3O[C@H]1C[C@H](N)[C@H](O)[C@H](C)O1 [DOXORUBICIN HYDROCHLORIDE] | – | 0.4 µM | 0.4 µM | – |
| CSC(=O)c1c(O[C@@H]2O[C@H](CO)[C@@H](O)[C@H](O)[C@H]2O)c(C)c(O)c(C)c1C(C)C | > 40 µM | > 40 µM | > 40 µM | Dde |
| COC(=O)c1c(O)c(C)c(O)c(C)c1C(C)C | 7.3 µM | > 40 µM | > 40 µM | – |
| CSC(=O)c1c(C(C)C)cc(O)c(C)c1O[C@@H]1O[C@H](CO)[C@@H](O)[C@H](O)[C@H]1O | > 40 µM | > 40 µM | > 40 µM | – |
| CCc1c(O)c(C)c(O[C@@H]2O[C@H](CO)[C@@H](O)[C@H](O)[C@H]2O)c(C(=O)SC)c1C(C)C | > 40 µM | > 40 µM | > 40 µM | – |
| CCc1c(C)c(O)c(C)c(O[C@@H]2O[C@H](CO)[C@@H](O)[C@H](O)[C@H]2O)c1C(=O)SC | > 40 µM | > 40 µM | > 40 µM | Dde |
| COc1c(C)c(O)c(C)c(C(C)C)c1C(=O)SC | > 40 µM | 36 µM | > 40 µM | Dde |
